According to patent publication US20230381261A1, “A Purified Extract Isolated from Agrimonia Coreana Nakai Containing Abundant Amount of Active Ingredient, the Preparation Thereof, the Composition Comprising the Same as an Active Ingredient for Preventing or Treating Inflammation, Allergy and Atopic Dermatitis and the Use Thereof” (priority 2020, published 2023):

Assays:
CD4+ T cell = experiment: Inhibition of CD4+ T cell proliferation (CFSE, flow cytometry, anti-CD3/anti-CD28 stimulation); assay type: cell-based; conditions: Homo sapiens; 10 μM BTP2 control; anti-CD3 and anti-CD28 stimulated CD4+ T cell; 72 hours; read-out: Inhibition rate on T cell proliferation (%)
Protocol: In order to determine the anti-immunological activity of inventive extract, following inhibition test of proliferation of T cell isolated from human blood was performed according to the procedure disclosed in the literature (J Immunol Jul. 15, 2002, 169 (2) 802-808).
In order to evaluate the anti-immunological activity of inventive extract, PBMC(peripheral blood mononuclear cell) and T cell which had been used in the various immunological analysis, were prepared from human blood using Fiicoll (GE17-5442-02, GE Healthcare) according to the previous literature (BIOPRESERVATION AND BIOBANKING, Volume 14, Number 5, 2016).
CD4+ T cell was carefully isolated from the isolated PBMC using by T cell isolation kit (130-096-533, Miltenyi biotec.) according to the manufacture's manual instruction.
The anti-immunological effect on T cell was evaluated by the inhibition effect on the proliferation of CD4+ T cell. […]
The T cell treated with test sample was incubated at 37° C. for 72 hours in 5% CO2 incubator (MCO-18AC, Panasonic) and then the cell was collected to be analyzed using Flow cytometry (BD LSRFortessa, BD Biosciences).

[1] = system: IL-2 release in Jurkat T cell; experiment: Inhibition of IL-2 release in Jurkat T cell (ELISA, anti-CD3/anti-CD28 stimulation); assay type: cell-based; conditions: Homo sapiens; 10 μM BTP2 control; anti-CD3 and anti-CD28 stimulated Jurkat T cell; 72 hours; read-out: Inhibition rate on IL-2 release (%)
Protocol: In order to determine the anti-immunological activity of inventive extract, following inhibition test of cytokine release in Jukrat T cell was performed according to the procedure disclosed in the literature (ARTHRITIS & RHEUMATISM Vol. 52, No. 9, September 2005, pp 2730-2739).
ELISA (Enzyme-linked immunosorbent assay) was performed to determine the release of IL-2 in Jukrat T cell.
Jukrat T cell (TIB-152, American Type Culture Collection(ATCC)) was inoculated into 96 well plates (2×10^5 cells/well) and stimulated with anti-CD3 and anti-CD 28.
In order to determine the inhibition effect on the IL-2 release of T cell of inventive extract, the test samples, i.e., the extract disclosed in Comparative Examples and Examples, were inoculated into the well plate to be 100 μg/mL with the stimuli of anti-CD3 and anti-CD 28.
10 μM BTP2([N-{4-[3,5-bis(Trifluoromethyl)-1H-pyrazol-1-yl]phenyl}-4-methyl-1,2,3-thiadiazole-5-carboxamide], 203890-M, Calbiochem) was used as a control group. […]
The release of cytokines was analyzed by IL-2 specifically reacting ELISA kit (BGK60568, Peprotech Inc. NJ, USA) and the content of IL-2 was determined according to the instruction manual of manufacture.

Compound `Cc1nnsc1C(=O)Nc1ccc(-n2nc(C(F)(F)F)cc2C(F)(F)F)cc1` [BTP2, N-{4-[3,5-bis(Trifluoromethyl)-1H-pyrazol-1-yl]phenyl}-4-methyl-1,2,3-thiadiazole-5-carboxamide] has an inhibition at 10 µM (CD4+ T cell) of 98.84 ± 0.0006% and an inhibition at 10 µM [1] of 90.3 ± 0.552%.
